According to patent US20230286973A1, “PROTEIN SECRETION INHIBITORS” (KEZAR LIFE SCIENCES, priority 2020, published 2023):
Values joined by “and” are separate entries in the source; they are usually repeats but may differ in a detail not shown here. Equal values may be shown once.

What was measured:
[1] = test system: PD1-ss+10aa/Gaussia Luciferase; assay: Dox-Induced PD1-ss-Gluc Assay; format: cell-based; settings: 24 hr Dox induction; 293FRT/TO cells; read-out: 24 hr Dox Inducible PD1ssGluc 293FRT/TO: Mean IC50
Procedure, shortened: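 Stable Flp-In 293 T-REx cells carried a doxycycline-inducible construct of Gaussia luciferase fused to the PD1 signal sequence plus 10 amino acids. Cells were plated the day before, then treated with compound dilutions in DMSO/media containing doxycycline at 37 °C, 5% CO2.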

[2] = test system: TNFα-FL/Gaussia Luciferase; assay: Dox Induced TNFα-FL-Gluc Assay; format: cell-based; settings: for IC50: 24 hr Dox induction, 293FRT/TO cells, read-out: 24 hr Dox Inducible TNFaFLGluc 293FRT/TO: Mean IC50; for 24 hr Dox Inducible TNFaFLGluc 293FRT/TO: TNF/PD1: ratio of TNFaFLGluc IC50 to PD1ssGluc IC50
Procedure, shortened: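 Cell line: stable Flp-In 293 T-REx, TNFα-FL(1-233)-Gaussia luciferase fusion, T-REx-inducible. Plated day -1; compounds in DMSO/media + doxycycline, 37 °C, 5% CO2. Undefined stereocentres = mixture tested.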

[3] = test system: HER3-ss+4aa/Gaussia Luciferase; assay: Dox-Induced Her3-ss-Gluc Assay; format: cell-based; settings: 24 hr Dox induction; 293FRT/TO cells; read-out: 24 hr Dox Inducible Her3(ss + 4)Gluc 293FRT/TO: Mean IC50
Procedure, shortened: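 Flp-In 293 T-REx cells, stable HER3-ss+4aa/Gaussia luciferase insert, hygromycin/blasticidin selected; plated day before; compound in DMSO/media + doxycycline; 37° C., 5% CO2.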

[4] = test system: IL-2-FL/Gaussia Luciferase; assay: Dox Induced IL2-FL-Gluc Assay; format: cell-based; settings: for IC50: 24 hr Dox induction, 293FRT/TO cells, read-out: 24 hr Dox Inducible IL2FLGluc 293FRT/TO: Mean IC50; for 24 hr Dox Inducible IL2FLGluc 293FRT/TO: IL2/PD1: ratio of IL2FLGluc IC50 to PD1ssGluc IC50
Procedure, shortened: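 Stable Flp-In 293 T-REx line, Tet-regulated IL-2 (aa 1-153)–Gaussia luciferase fusion; hygromycin/blasticidin selected. Plated day -1; compound + doxycycline added next day; 37° C, 5% CO2.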

[5] = test system: multiple myeloma cell line NCI-H929; assay: H929 Cell Viability Assay; format: cell-based, human; settings: NCI-H929 cells, Celltiter-Glo
Procedure, shortened: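 Cells in RPMI 1640/10% FBS; compound dilutions in DMSO/media; 48 h, 37° C, 5% CO2; CellTiter-Glo luciferase readout for viability.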

[6] = test system: multiple myeloma cell line U266B1; assay: U266 Cell Viability Assay; format: cell-based, human; settings: U266B1 cells, Celltiter-Glo
Procedure, shortened: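 Luminescent ATP read-out (CellTiter-Glo) after 48 h compound exposure at 37° C., 5% CO2; cells maintained in RPMI 1640/10% FBS/2 mM glutamine/pen-strep, compounds diluted in DMSO/media.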

[7] = Liver Microsome Stability Assay (rat); settings: rat liver microsomes, with NADPH, 1.0 uM compound
Description: (§1) Stability of a compound was assessed in the presence of liver microsomes from various sources—mouse, rat, monkey and human liver microsomes. 1.0 uM compound, 0.4% DMSO in 0.1 M Potassium Phosphate with 1.0 mg/mL liver microsomes, were incubated at 37° C. with or without 1 mM NADPH. The samples were quenched at 0, and 30 minutes.

[8] = Liver Microsome Stability Assay (mouse); settings: mouse liver microsomes, with NADPH, 1.0 uM compound
Description: as §1

[9] = Liver Microsome Stability Assay (human); settings: human liver microsomes, with NADPH, 1.0 uM compound
Description: as §1

[10] = Liver Microsome Stability Assay (monkey); settings: monkey liver microsomes, with NADPH, 1.0 uM compound
Description: as §1

SMILES: COCc1ccc(N2CCC[C@@H]2c2csc(NC(=O)c3cccn3Cc3ccncc3)n2)cc1 [Compound A48, (R)-N-(4-(1-(4-(methoxymethyl)phenyl)pyrrolidin-2-yl)thiazol-2-yl)-1-(pyridin-4-ylmethyl)-1H-pyrrole-2-carboxamide]
- IC50 [1]: 6.13 nM
- IC50 [2]: 101 nM
- 24 hr Dox Inducible TNFaFLGluc 293FRT/TO: TNF/PD1 [2]: 16.4
- IC50 [3]: 17.4 nM
- IC50 [4]: 13.5 nM
- 24 hr Dox Inducible IL2FLGluc 293FRT/TO: IL2/PD1 [4]: 2.2
- EC50 ([5]; Homo sapiens, NCI-H929, 48 h): 150 nM
- EC50 ([6]; Homo sapiens, U-266, 48 h): > 25000 nM
- Liver Microsome Stability (Multiple Species): Rat - % Remaining after 30 min w/NADPH [7]: 0.64%
- Liver Microsome Stability (Multiple Species): Mouse - % Remaining after 30 min w/NADPH [8]: 4.71%
- Liver Microsome Stability (Multiple Species): Human - % Remaining after 30 min w/NADPH [9]: 2.91%
- Liver Microsome Stability (Multiple Species): Monkey - % Remaining after 30 min w/NADPH [10]: 1.44%

SMILES: CNCc1ccc(N2CCC[C@@H]2c2csc(NC(=O)c3cccn3Cc3ccncc3)n2)cc1 [Compound A49, (R)-N-(4-(1-(4-((methylamino)methyl)phenyl)pyrrolidin-2-yl)thiazol-2-yl)-1-(pyridin-4-ylmethyl)-1H-pyrrole-2-carboxamide]
- IC50 [1]: 778 nM
- IC50 [2]: > 25000 nM
- 24 hr Dox Inducible TNFaFLGluc 293FRT/TO: TNF/PD1 [2]: >32.1
- IC50 [3]: 1640 nM
- IC50 [4]: 2220 nM
- 24 hr Dox Inducible IL2FLGluc 293FRT/TO: IL2/PD1 [4]: 2.8
- EC50 ([5]; Homo sapiens, NCI-H929, 48 h): 9860 nM
- EC50 ([6]; Homo sapiens, U-266, 48 h): 8120 nM
- Liver Microsome Stability (Multiple Species): Rat - % Remaining after 30 min w/NADPH [7]: 10.7%
- Liver Microsome Stability (Multiple Species): Mouse - % Remaining after 30 min w/NADPH [8]: 29.4%
- Liver Microsome Stability (Multiple Species): Human - % Remaining after 30 min w/NADPH [9]: 1.94%
- Liver Microsome Stability (Multiple Species): Monkey - % Remaining after 30 min w/NADPH [10]: 0.94%

SMILES: O=C(Nc1nc([C@H]2CCCN2c2ccc(C3CCNCC3)cc2)cs1)c1cccn1Cc1ccncc1 [Compound A51, (R)-N-(4-(1-(4-(piperidin-4-yl)phenyl)pyrrolidin-2-yl)thiazol-2-yl)-1-(pyridin-4-ylmethyl)-1H-pyrrole-2-carboxamide]
- IC50 [1]: 529 nM
- IC50 [2]: 19300 nM
- 24 hr Dox Inducible TNFaFLGluc 293FRT/TO: TNF/PD1 [2]: 36.5
- IC50 [3]: 917 nM
- IC50 [4]: 1040 nM
- 24 hr Dox Inducible IL2FLGluc 293FRT/TO: IL2/PD1 [4]: 2
- EC50 ([5]; Homo sapiens, NCI-H929, 48 h): 4950 nM
- EC50 ([6]; Homo sapiens, U-266, 48 h): 6060 nM
- Liver Microsome Stability (Multiple Species): Rat - % Remaining after 30 min w/NADPH [7]: 0.4%
- Liver Microsome Stability (Multiple Species): Mouse - % Remaining after 30 min w/NADPH [8]: 64.3%
- Liver Microsome Stability (Multiple Species): Human - % Remaining after 30 min w/NADPH [9]: 2.67%
- Liver Microsome Stability (Multiple Species): Monkey - % Remaining after 30 min w/NADPH [10]: 1.91%

SMILES: Cc1cc(Cn2cccc2C(=O)Nc2nc([C@H]3CCCN3c3ccccc3)cs2)ccn1 [Compound A52, (R)-1-((2-methylpyridin-4-yl)methyl)-N-(4-(1-phenylpyrrolidin-2-yl)thiazol-2-yl)-1H-pyrrole-2-carboxamide]
- IC50 [1]: 340 nM
- IC50 [2]: 4050 nM
- 24 hr Dox Inducible TNFaFLGluc 293FRT/TO: TNF/PD1 [2]: 11.9
- IC50 [3]: 450 nM
- IC50 [4]: 912 nM
- 24 hr Dox Inducible IL2FLGluc 293FRT/TO: IL2/PD1 [4]: 2.7
- EC50 ([5]; Homo sapiens, NCI-H929, 48 h): 20600 nM
- EC50 ([6]; Homo sapiens, U-266, 48 h): > 25000 nM
- Liver Microsome Stability (Multiple Species): Rat - % Remaining after 30 min w/NADPH [7]: 0.63%
- Liver Microsome Stability (Multiple Species): Mouse - % Remaining after 30 min w/NADPH [8]: 3.47%
- Liver Microsome Stability (Multiple Species): Human - % Remaining after 30 min w/NADPH [9]: 1.11%
- Liver Microsome Stability (Multiple Species): Monkey - % Remaining after 30 min w/NADPH [10]: 0.33%

SMILES: Cc1cnccc1Cn1cccc1C(=O)Nc1nc([C@H]2CCCN2c2ccccc2)cs1 [Compound A53, (R)-1-((3-methylpyridin-4-yl)methyl)-N-(4-(1-phenylpyrrolidin-2-yl)thiazol-2-yl)-1H-pyrrole-2-carboxamide]
- IC50 [1]: 23.7 nM
- IC50 [2]: 301 nM
- 24 hr Dox Inducible TNFaFLGluc 293FRT/TO: TNF/PD1 [2]: 12.7
- IC50 [3]: 31.5 nM
- IC50 [4]: 54.3 nM
- 24 hr Dox Inducible IL2FLGluc 293FRT/TO: IL2/PD1 [4]: 2.3
- EC50 ([5]; Homo sapiens, NCI-H929, 48 h): 20600 nM
- EC50 ([6]; Homo sapiens, U-266, 48 h): > 25000 nM
- Liver Microsome Stability (Multiple Species): Rat - % Remaining after 30 min w/NADPH [7]: 0.63%
- Liver Microsome Stability (Multiple Species): Mouse - % Remaining after 30 min w/NADPH [8]: 3.47%
- Liver Microsome Stability (Multiple Species): Human - % Remaining after 30 min w/NADPH [9]: 1.11%
- Liver Microsome Stability (Multiple Species): Monkey - % Remaining after 30 min w/NADPH [10]: 0.33%

SMILES: CC(=O)N1CCC(c2ccc(N3CCC[C@@H]3c3csc(NC(=O)c4cccn4Cc4ccncc4)n3)cc2)CC1 [Compound A55, (R)-N-(4-(1-(4-(1-acetylpiperidin-4-yl)phenyl)pyrrolidin-2-yl)thiazol-2-yl)-1-(pyridin-4-ylmethyl)-1H-pyrrole-2-carboxamide]
- IC50 [1]: 19.5 nM
- IC50 [2]: 426 nM
- 24 hr Dox Inducible TNFaFLGluc 293FRT/TO: TNF/PD1 [2]: 21.8
- IC50 [3]: 41.4 nM
- IC50 [4]: 58.1 nM
- 24 hr Dox Inducible IL2FLGluc 293FRT/TO: IL2/PD1 [4]: 3
- EC50 ([5]; Homo sapiens, NCI-H929, 48 h): 682 nM
- EC50 ([6]; Homo sapiens, U-266, 48 h): > 25000 nM
- Liver Microsome Stability (Multiple Species): Rat - % Remaining after 30 min w/NADPH [7]: 0.11%
- Liver Microsome Stability (Multiple Species): Mouse - % Remaining after 30 min w/NADPH [8]: 18.3%
- Liver Microsome Stability (Multiple Species): Human - % Remaining after 30 min w/NADPH [9]: 0.34%
- Liver Microsome Stability (Multiple Species): Monkey - % Remaining after 30 min w/NADPH [10]: 0.1%

SMILES: O=C(Nc1nc([C@H]2CCCN2c2ccc(C(F)(F)F)cc2)cs1)c1cccn1Cc1ccnc(F)c1 [Compound A56, (R)-1-((2-fluoropyridin-4-yl)methyl)-N-(4-(1-(4-(trifluoromethyl)phenyl)pyrrolidin-2-yl)thiazol-2-yl)-1H-pyrrole-2-carboxamide]
- IC50 [1]: 5.8 nM and 4.66 nM and 4.85 nM
- IC50 [2]: 111 nM and 63.2 nM and 96.9 nM
- 24 hr Dox Inducible TNFaFLGluc 293FRT/TO: TNF/PD1 [2]: 19.1 and 13.6 and 20
- IC50 [3]: 9.54 nM and 8.51 nM and 7.39 nM
- IC50 [4]: 10.4 nM and 6.77 nM and 8.74 nM
- 24 hr Dox Inducible IL2FLGluc 293FRT/TO: IL2/PD1 [4]: 1.8 and 1.5
- EC50 ([5]; Homo sapiens, NCI-H929, 48 h): 152 nM
- EC50 ([5]; 48 hr): 149 nM and 165 nM
- EC50 ([6]; Homo sapiens, U-266, 48 h): > 25000 nM
- EC50 ([6]; 48 hr): > 24800 nM
- Liver Microsome Stability (Multiple Species): Rat - % Remaining after 30 min w/NADPH [7]: 48.3% and 54.8%
- Liver Microsome Stability (Multiple Species): Mouse - % Remaining after 30 min w/NADPH [8]: 81.1% and 81.8%
- Liver Microsome Stability (Multiple Species): Human - % Remaining after 30 min w/NADPH [9]: 43.9% and 46%
- Liver Microsome Stability (Multiple Species): Monkey - % Remaining after 30 min w/NADPH [10]: 27.3% and 25.8%

SMILES: O=C(Nc1nc([C@H]2CCCN2c2ccc(CO)cc2)cs1)c1cccn1Cc1ccncc1 [Compound A57, (R)-N-(4-(1-(4-(hydroxymethyl)phenyl)pyrrolidin-2-yl)thiazol-2-yl)-1-(pyridin-4-ylmethyl)-1H-pyrrole-2-carboxamide]
- IC50 [1]: 17.7 nM
- IC50 [2]: 287 nM
- 24 hr Dox Inducible TNFaFLGluc 293FRT/TO: TNF/PD1 [2]: 16.2
- IC50 [3]: 38.3 nM
- IC50 [4]: 45.1 nM
- 24 hr Dox Inducible IL2FLGluc 293FRT/TO: IL2/PD1 [4]: 2.5
- EC50 ([5]; Homo sapiens, NCI-H929, 48 h): 500 nM
- EC50 ([6]; Homo sapiens, U-266, 48 h): > 25000 nM
- Liver Microsome Stability (Multiple Species): Rat - % Remaining after 30 min w/NADPH [7]: 6.28%
- Liver Microsome Stability (Multiple Species): Mouse - % Remaining after 30 min w/NADPH [8]: 6.1%
- Liver Microsome Stability (Multiple Species): Human - % Remaining after 30 min w/NADPH [9]: 26.6%
- Liver Microsome Stability (Multiple Species): Monkey - % Remaining after 30 min w/NADPH [10]: 49.5%
